Measured values from patent publication US20230272062A1, “Treatment Of Lung Disease Based Upon Stratification Of Polygenic Score Relating To Response To A Therapeutic Agent” (Regeneron Pharmaceuticals, Inc., priority 2021, published 2023).
Entries after “also recorded” stand apart in the source; their conditions may differ.

What was measured:
[1] = Change of FEV1 in dupilumab-treated subjects stratified by FEV1-PS; assay type: in vivo, human; settings: European subjects
Description: The covariates were AGE, SEX, STUDYID (study identifier), ICS_FL (taking inhaled corticosteroids at baseline; yes/no), EOSBL_300 FL (eosinophils >300 at baseline), ASMANUM_LOG (exacerbation history for the previous year), HGTBL (height baseline), FEV1BL, and PC1-4 (principal components 1-4). The FEV1-PS was divided into quartiles and ranked from lowest to highest, the number at the bottom of each bar is the number of subjects in each group, and the number inside each bar is the change in FEV1 values at week 12.
The covariates were AGE, SEX, STUDYID, ICS_FL, EOSBL_300 FL, ASMANUM_LOG, HGTBL, FEV1BL, and PC1-4.

[2] = Annualized exacerbation rate in dupilumab-treated subjects stratified by FEV1-PS; assay type: in vivo, human; settings: European subjects, by FEV1-PS quartile (FIG. 3)
Description: The covariates were AGE, SEX, STUDYID, ICS_FL, EOSBL_300 FL, ASMANUM_LOG, HGTBL, FEV1BL, and PC1-4. The FEV1-PS was divided into quartiles and ranked from lowest to highest, the number at the bottom of each bar is the number of subjects in each group, and the number inside each bar is the change in annualized exacerbation rate.

With dupilumab the “longitudinal increase of change of FEV1” value ([1]; by FEV1-PS (FIG. 2)) was “significantly associated with better FEV1 improvement; also recorded: greatest FEV1 improvement”, the “change of FEV1 at week 12” value ([1]; by FEV1-PS quartile, compared to placebo-treated patients (FIG. 1)) was “significantly associated with better FEV1 improvement; also recorded: greatest improvement in FEV1” and the annualized exacerbation rates [2] was “not associated with differences in annualized exacerbation rates”.
